The results in this text go back to PMC7320011, “Rationally designed ruthenium complexes for 1- and 2-photon photodynamic therapy” (Nature Communications, 2020).

Data set [1] in a line: Singlet oxygen quantum yield, indirect evaluation (1O2 scavenger absorbance). The class given is physicochemical. As for the experimental part: Indirect evaluation: measurement in acetonitrile: the sample was prepared in an air-saturated acetonitrile solution with an absorption of 0.2 at the irradiation wavelength, N,N-dimethyl-4-nitrosoaniline aniline (RNO, 24 µM) and imidazole (12 mM). Measurement in PBS buffer: the sample was prepared in an air-saturated PBS solution containing the complex with an absorption of 0.2 at the irradiation wavelength, N,N-dimethyl-4-nitrosoaniline aniline (RNO, 20 µM) and histidine (10 mM). The samples were irradiated for various time points with an Atlas Photonics LUMOS BIO irradiator. The absorption of the samples was constantly monitored with a SpectraMax M2 Microplate Reader (Molecular Devices). The difference in absorption (A0 − A) at 420 nm for the measurement in acetonitrile or at 440 nm for the measurement in PBS was determined. The difference in absorption was then plotted against the irradiation times and the slope of the linear regression calculated. The absorption of the sample was corrected with an absorption correction factor. The singlet oxygen quantum yields were calculated using the same formulas as used for the direct evaluation.

Data set [2] can be described thus: Distribution coefficient (shake-flask, octanol/PBS). To be noted: ICP-MS. In kind it is physicochemical. As for the experimental part:
Using the “shake-flask” method, the distribution coefficient between the PBS and octanol phase of the sample was determined. The PBS and octanol phases were previously saturated in each other. The sample was dissolved in the phase, which is dissolving best the compound. This solution was added to an equal volume of the other phase and mixed at 190 rpm overnight with a sample mixer. Following this, the solutions were equilibrated for 4 h. The phases were carefully separated from each other. The amount of the sample in each phase was determined by ICP-MS. The evaluation was repeated three times and the ratio between the organic and aqueous phase determined.

The test system of data set [3] is mouse colon carcinoma (CT-26) cells.
Description: (§1) A total of 4 × 10^3 cells were seeded on 96-well plates and allowed to adhere overnight. The cells were treated with increasing concentrations of the sample diluted in cell media achieving a total volume of 200 μL. The cells were incubated with the sample for 8 h and, after this time, the medium refreshed. To study the phototoxic effect of the sample, the cells were exposed to 480 nm (spectral half-width: 20 nm, 10 min, 5.2 mW cm^−2, 3.1 J cm^−2) or 540 nm (spectral half-width: 30 nm, 40 min, 4.0 mW cm^−2, 9.5 J cm^−2) light using an Atlas Photonics LUMOS BIO irradiator. To study the dark cytotoxicity of the sample, the cells were not irradiated and the medium exchanged. The cells were grown for an additional 40 h at 37 °C. After this time, the medium was replaced with fresh medium containing resazurin with a final concentration of 0.2 mg mL^−1. The cells were incubated for 4 h and the amount of the fluorescent product resorufin determined (λex = 540 nm, λem = 590 nm) with a SpectraMax M2 Microplate Reader (Molecular Devices). The obtained data was analyzed with the GraphPad Prism software.
The test system of data set [4] is noncancerous retinal pigment epithelium (RPE-1) cells. The data set is described as follows: (Photo-)cytotoxicity on 2D cell monolayers, RPE-1. Particulars: for PI (480 nm): RPE-1, dark vs 480 nm; for PI (540 nm): RPE-1, dark vs 540 nm; for pIC50: 1-3 as chloride salts.
Description: as §1
For data set [5], the system named is human glioblastoma astrocytoma (U373) cells.
Description: as §1
Data set [6] in a line: Singlet oxygen quantum yield, direct evaluation (1O2 phosphorescence). In kind it is physicochemical. The method, then:
Direct evaluation: the sample was prepared in an air-saturated acetonitrile or deuterated water solution with an absorption of 0.2 at 450 nm. The sample was irradiated at 450 nm with a mounted M450LP1 LED (Thorlabs), whose light was focused with aspheric condenser lenses. Using a T-Cube LED Driver (Thorlabs), the intensity of the irradiation was varied and monitored with an optical power and energy meter. The emission was focused at right angle to the excitation pathway and directed to a Princeton Instruments Acton SP-2300i monochromator. To cut off light at wavelengths shorter than 850 nm, a longpass glass filter was placed in front of the monochromator entrance slit. The signal was detected with an EO-817L IR-sensitive liquid-nitrogen cooled germanium diode detector (North Coast Scientific Corp.). The luminescence signal, centered at 1270 nm, was measured from 1100 to 1400 nm. The obtained data were analyzed upon plotting the integrated luminescence peaks against the percentage of the irradiation intensity. The slope of the linear regression was calculated and compared with the reference Rose Bengal (Φ = 76%)[59]. The absorption of the sample was corrected with an absorption correction factor. The singlet oxygen quantum yields were calculated using the following formula:4 Φsample=Φreference×Ssample/Sreference×Ireference/Isample, 5 I=I0×1−10^-A.
Φ = singlet oxygen quantum yield, S = slope of the linear regression of the plot of the areas of the singlet oxygen luminescence peaks against the irradiation intensity, I = absorption correction factor, I0 = light intensity of the irradiation source, and A = absorption of the sample at irradiation wavelength.

The test system of data set [7] is noncancerous retinal pigment epithelium (RPE-1) cells.
Description: as §1
Data set [8] is described as follows: Emission and luminescence quantum yield. The class given is physicochemical. To be noted: acetonitrile. The method, then:
The absorption spectra of the sample was measured with a SpectraMax M2 Spectrometer (Molecular Devices). For the measurements of the emission, the sample was irradiated at 355 nm with a NT342B Nd-YAG pumped optical parametric oscillator (Ekspla). The emission was focused at right angle to the excitation pathway and directed to a Princeton Instruments Acton SP-2300i monochromator. The signal was detected with a XPI-Max 4 CCD camera (Princeton Instruments).
The sample was prepared in an acetonitrile solution with an absorption of 0.1 at 355 nm. The sample was irradiated at 355 nm with a NT342B Nd-YAG pumped optical parametric oscillator (Ekspla). The emission was focused at right angle to the excitation pathway and directed to a Princeton Instruments Acton SP-2300i monochromator. The signal was detected with a XPI-Max 4 CCD camera (Princeton Instruments). The luminescence quantum yields were determined by comparison with the reference [Ru(2,2′-bipyridine)3]Cl2 in acetonitrile (Φem = 5.9%)[58] applying the following formula:2 Φem,sample=Φem,reference×Freference/Fsample×Isample/Ireference×nsample/nreference^2, 3 F=1−10^-A. Φem = luminescence quantum yield, F = fraction of light absorbed, I = integrated emission intensities, n = refractive index, A = absorbance of the sample at irradiation wavelength.

Data set [9] is described as follows: Photostability (absorption spectra upon irradiation). The class given is physicochemical. Particulars: 450 nm, 0 to 10 min (13.2 J cm^−2), air-saturated acetonitrile. The method, then: The sample was prepared in an air-saturated acetonitrile solution. Using a Atlas Photonics LUMOS BIO irradiator, the sample was constantly irradiated at 450 nm in time intervals from 0 to 10 min (13.2 J cm^−2). The absorption spectra from 350 to 700 nm was monitored with a SpectraMax M2 Microplate Reader (Molecular Devices) at each time interval. As positive and negative controls, respectively, [Ru(2,2′-bipyridine)3]Cl2 and Protoporphyrin IX were used.

Data set [10] concerns human glioblastoma astrocytoma (U373) cells. The data set is described as follows: (Photo-)cytotoxicity on 2D cell monolayers, U373.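 On all read-outs here: Resazurin-to-resorufin fluorescence viability readout, 8 h compound exposure then medium change, light dose 3.1 J cm^−2 at 480 nm or 9.5 J cm^−2 at 540 nm, analysed 40 h later.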 To be noted: for PI (480 nm): U373, dark vs 480 nm; for PI (540 nm): U373, dark vs 540 nm; for pIC50: 1-3 as chloride salts.
Description: as §1
Data set [11] concerns mouse colon carcinoma (CT-26) cells. The data set can be described thus: (Photo-)cytotoxicity on 2D cell monolayers, CT-26. To be noted: for PI (480 nm): CT-26, dark vs 480 nm; for PI (540 nm): CT-26, dark vs 540 nm; for pIC50: 1-3 as chloride salts.
Description: as §1
Where [12] appears, read: read-out: IC50 540 nm (40 min, 9.5 J cm-2), RPE-1, 540 nm.
Setting [13] is: read-out: IC50 dark, RPE-1, dark.
[14] abbreviates: read-out: IC50 480 nm (10 min, 3.1 J cm-2), U373, 480 nm.
The mark [15] stands for this setting: read-out: IC50 dark, U373, dark.
Setting [16] is: read-out: IC50 540 nm (40 min, 9.5 J cm-2), CT-26, 540 nm.
The mark [17] stands for this setting: read-out: IC50 dark, CT-26, dark.

pIC50: −log10 of the molar value. Where two headings read alike, the source gives them in different places.

On to `C(=C\c1ccnc(-c2cc(/C=C/c3ccccc3)ccn2)c1)/c1ccccc1.C(=C\c1ccnc(-c2cc(/C=C/c3ccccc3)ccn2)c1)/c1ccccc1.C(=C\c1ccnc(-c2cc(/C=C/c3ccccc3)ccn2)c1)/c1ccccc1.F[P-](F)(F)(F)(F)F.F[P-](F)(F)(F)(F)F.[Ru+2]` [compound 1], for which the “Singlet oxygen quantum yield, Indirect 450 nm CH3CN” value in data set [1] came out at 66%. Besides, the “Singlet oxygen quantum yield, Indirect 450 nm PBS” value in data set [1] was 5%. Further, the “Singlet oxygen quantum yield, Indirect 540 nm CH3CN” value in [1] came to 61%. Moreover, the “Singlet oxygen quantum yield, Indirect 540 nm PBS” value in [1] stood at 3%. The “logD (octanol/PBS)” value in [2] is “+2.6 ± 0.4”. Moreover, the pIC50 in data set [3] is 4.69; in data set [4] (setting [12]), 4.50; in [4] (setting [13]), < 4.00; in data set [5], 4.08; in data set [7], 4.51; in data set [10] (setting [14]), 4.29. Also, the pIC50 in data set [10] (setting [15]) is < 4.00; in data set [11] (setting [16]), 4.48; in data set [11] (setting [17]), < 4.00. Also, the results for the “PI (480 nm)” value in [4], in [10] and in data set [11] were > 3.2, > 1.9 and > 4.9, respectively. Also, the entries for the “PI (540 nm)” value in [4], in data set [10] and in data set [11] were > 3.2, > 1.2 and > 3.0, respectively. Further, in data set [6], the “Singlet oxygen quantum yield, Direct 450 nm CH3CN” value was 65%. Moreover, in data set [8], the “Φem, luminescence quantum yield” value was 1.9%. For the same molecule, the “λem, emission maximum” value in data set [8] was found to be 677 nm. Further, the “photostability (change of absorption spectra upon irradiation)” value in [9] is “no significant differences in the absorption spectra”.

For `CN(C)c1ccc(/C=C/c2ccnc(-c3cc(/C=C/c4ccc(N(C)C)cc4)ccn3)c2)cc1.CN(C)c1ccc(/C=C/c2ccnc(-c3cc(/C=C/c4ccc(N(C)C)cc4)ccn3)c2)cc1.CN(C)c1ccc(/C=C/c2ccnc(-c3cc(/C=C/c4ccc(N(C)C)cc4)ccn3)c2)cc1.F[P-](F)(F)(F)(F)F.F[P-](F)(F)(F)(F)F.[Ru+2]` [compound 2, [Ru((E,E′)-4,4′-Bis[p-(N,N-dimethylamino)styryl]-2,2′-bipyridine)3][PF6]2], in [1], the “Singlet oxygen quantum yield, Indirect 450 nm CH3CN” value worked out at 25%. In addition, the “Singlet oxygen quantum yield, Indirect 450 nm PBS” value in data set [1] is on record as 3%. In addition, the “Singlet oxygen quantum yield, Indirect 540 nm CH3CN” value in data set [1] amounted to 16%. In addition, the “Singlet oxygen quantum yield, Indirect 540 nm PBS” value in [1] is given as 1%. Moreover, the “logD (octanol/PBS)” value in data set [2] is recorded as “+2.7 ± 0.4”. Also, the pIC50 in data set [3] is 4.37; in [4] (setting [12]), 4.31; in data set [4] (setting [13]), < 4.00; in data set [5] it was 4.21; in data set [7] it was 4.42; in [10] (setting [14]) it was 4.31. For the same molecule, the values for the negative logarithm of the IC50 (pIC50) in data set [10] (setting [15]), in data set [11] (setting [16]) and in [11] (setting [17]) were < 4.00, 4.20 and < 4.00, respectively. In addition, the “PI (480 nm)” value in data set [4] was > 2.6; in data set [10], > 2.0; in [11] it was > 2.3. Moreover, the “PI (540 nm)” value in data set [4] is reported as > 2.0; in data set [10], > 1.6; in [11] it was > 1.6. The “Singlet oxygen quantum yield, Direct 450 nm CH3CN” value in data set [6] turned out to be 18%. Further, in data set [8], the “Φem, luminescence quantum yield” value is reported as > 0.1%. In [8], the “λem, emission maximum” value came to 709 nm. For the same molecule, the “photostability (change of absorption spectra upon irradiation)” value in [9] is on record as “small changes in the absorption spectra”.

On to `COc1ccc(/C=C/c2ccnc(-c3cc(/C=C/c4ccc(OC)cc4)ccn3)c2)cc1.COc1ccc(/C=C/c2ccnc(-c3cc(/C=C/c4ccc(OC)cc4)ccn3)c2)cc1.COc1ccc(/C=C/c2ccnc(-c3cc(/C=C/c4ccc(OC)cc4)ccn3)c2)cc1.F[P-](F)(F)(F)(F)F.F[P-](F)(F)(F)(F)F.[Ru+2]` [compound 3, [Ru((E,E′)-4,4′-Bis[p-methoxystyryl]-2,2′-bipyridine)3][PF6]2], for which the “Singlet oxygen quantum yield, Indirect 450 nm CH3CN” value in data set [1] stood at 48%. Further, the “Singlet oxygen quantum yield, Indirect 450 nm PBS” value in data set [1] worked out at 6%. Moreover, the “Singlet oxygen quantum yield, Indirect 540 nm CH3CN” value in data set [1] is 49%. Besides, the “Singlet oxygen quantum yield, Indirect 540 nm PBS” value in [1] came to 5%. Moreover, the “logD (octanol/PBS)” value in data set [2] was “+2.3 ± 0.3”. Also, the negative-log IC50 (pIC50) was 4.71 in [3]; 4.35 in data set [4] (setting [12]); < 4.00 in data set [4] (setting [13]); 4.29 in data set [5]; 4.27 in data set [7]; 4.39 in data set [10] (setting [14]). Besides, the values for the pIC50 in [10] (setting [15]), in data set [11] (setting [16]) and in data set [11] (setting [17]) were < 4.00, 4.64 and < 4.00, respectively. Moreover, the “PI (480 nm)” value is > 1.9 in data set [4], > 2.4 in [10] and > 5.2 in data set [11]. The “PI (540 nm)” value in [4] is on record as > 2.2; in data set [10], > 1.9; in [11], > 4.3. The “Singlet oxygen quantum yield, Direct 450 nm CH3CN” value in [6] is recorded as 52%. In data set [8], the “Φem, luminescence quantum yield” value came out at 1.1%. Further, in data set [8], the “λem, emission maximum” value is reported as 682 nm. In addition, the “photostability (change of absorption spectra upon irradiation)” value in data set [9] is “no significant differences in the absorption spectra”.

In general, pIC50 refers to −log10 of the IC50, conventionally taken in molar units.
